Experimental data: BindingDB's records for patent WO2022076764 (BRISTOL-MYERS SQUIBB COMPANY, 2022)

What was measured:
[1] = biological target: T1, N-formyl peptide receptor 2 (Homo sapiens, UniProt P25090)
T1 sequence (P25090 whole entry): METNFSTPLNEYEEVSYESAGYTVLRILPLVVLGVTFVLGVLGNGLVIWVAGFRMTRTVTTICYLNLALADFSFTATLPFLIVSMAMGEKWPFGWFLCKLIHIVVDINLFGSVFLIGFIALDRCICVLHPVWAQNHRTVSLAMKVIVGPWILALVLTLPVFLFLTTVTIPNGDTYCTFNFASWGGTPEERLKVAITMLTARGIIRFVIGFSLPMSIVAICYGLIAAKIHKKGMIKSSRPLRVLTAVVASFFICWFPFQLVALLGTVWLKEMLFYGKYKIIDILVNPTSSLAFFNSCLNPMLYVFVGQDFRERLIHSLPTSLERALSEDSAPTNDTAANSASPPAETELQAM

fMet-Leu-Phe receptor = biological target: T2, fMet-Leu-Phe receptor (Homo sapiens, UniProt P21462)
T2 sequence (P21462 whole entry): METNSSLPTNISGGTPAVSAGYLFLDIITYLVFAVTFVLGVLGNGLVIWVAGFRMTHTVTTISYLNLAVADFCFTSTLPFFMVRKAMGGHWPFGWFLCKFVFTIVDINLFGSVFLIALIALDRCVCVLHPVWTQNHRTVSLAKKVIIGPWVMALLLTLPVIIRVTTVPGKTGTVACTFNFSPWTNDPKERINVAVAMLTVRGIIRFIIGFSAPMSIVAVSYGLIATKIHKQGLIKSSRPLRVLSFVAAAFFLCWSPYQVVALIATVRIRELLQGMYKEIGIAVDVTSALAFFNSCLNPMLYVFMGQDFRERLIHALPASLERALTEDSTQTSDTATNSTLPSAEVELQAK

| Compound | EC50 [1] | EC50 (fMet-Leu-Phe receptor) |
| --- | --- | --- |
| COc1cc(F)c(-n2cc(-c3ccc(OC(F)F)cc3)nc2NC(=O)c2ccc(OC(F)F)cc2)c(F)c1 [WO2022076764, Example 7] | 190 nM | 33 nM |
| COc1cc(F)c(-n2cc(C(=O)N3CCC[C@H]3CO)nc2NC(=O)c2ccc(OC(F)F)cc2)c(F)c1 [WO2022076764, Example 50] | > 10000 nM | 77 nM |
| COc1cc(F)c(-n2cc(C3CCNCC3)nc2NC(=O)c2ccc(OC(F)F)cc2)c(F)c1 [WO2022076764, Example 63] | 710 nM | 10 nM |
| COc1cc(F)c(-n2cc(C(=O)N3CCC(O)CC3)nc2NC(=O)c2ccc(OC(F)F)cc2)c(F)c1 [WO2022076764, Example 52] | > 10000 nM | 63 nM |
| CCS(=O)(=O)N1CCC(c2cn(-c3c(F)cc(OC)cc3F)c(NC(=O)c3ccc(OC(F)F)cc3)n2)CC1 [WO2022076764, Example 65] | 320 nM | 81 nM |
| CCNC(=O)N1CCC(c2cn(-c3c(F)cc(OC)cc3F)c(NC(=O)c3ccc(OC(F)F)cc3)n2)CC1 [WO2022076764, Example 66] | 540 nM | 28 nM |
| COc1cc(F)c(-n2cc(C3CC3)nc2NC(=O)c2ccc(OC(F)F)cc2)c(F)c1 [WO2022076764, Example 37] | 800 nM | 16 nM |
| COc1cc(F)c(-n2cc(C(F)(F)C(F)(F)F)nc2NC(=O)c2ccc(OC(F)F)cc2)c(F)c1 [WO2022076764, Example 42] | 57 nM | 48 nM |
| CCOC(=O)c1cc(-c2cn(-c3ccc(OC)cc3)c(NC(=O)c3ccc(OC(F)F)cc3)n2)on1 [WO2022076764, Example 29] | 32 nM | 15 nM |
| COc1cc(F)c(-n2cc(C(F)(F)F)nc2NC(=O)c2ccc(OC(F)F)cc2)c(F)c1 [WO2022076764, Example 43] | 40 nM | 10 nM |
| COc1cc(F)c(-n2cc(C3CCC(O)CC3)nc2NC(=O)c2ccc(OC(F)F)cc2)c(F)c1 (stereo not drawn) [WO2022076764, Example 76] | 240 nM | 10 nM |
| COc1cc(F)c(-n2cc(-c3ccc(C(F)(F)F)cc3)nc2NC(=O)c2ccc(OC(F)F)cc2)c(F)c1 [WO2022076764, Example 6] | 120 nM | 76 nM |
| COc1ccc(-n2cc(C3CCCCC3)nc2NC(=O)c2ccc(OC(F)F)cc2)cc1 [WO2022076764, Example 27] | 660 nM | 55 nM |
| COc1cc(F)c(-n2cc(C3CCOCC3)nc2NC(=O)c2ccc(OC(F)F)cc2)c(F)c1 [WO2022076764, Example 41] | 230 nM | 26 nM |
| COc1cc(F)c(-n2cc(C(=O)NCc3cccnc3)nc2NC(=O)c2ccc(OC(F)F)cc2)c(F)c1 [WO2022076764, Example 47] | 110 nM | 35 nM |
| COc1ccc(-n2cc(-c3ccccn3)nc2NC(=O)c2ccc(OC(F)F)cc2)cc1 [WO2022076764, Example 28] | 1030 nM | 700 nM |
| COc1cc(F)c(-n2cc(-c3ccc4ccccc4c3)nc2NC(=O)c2ccc(OC(F)F)cc2)c(F)c1 [WO2022076764, Example 9] | 460 nM | 220 nM |
| COc1cc(F)c(-n2cc(C(=O)NCCCO)nc2NC(=O)c2ccc(OC(F)F)cc2)c(F)c1 [WO2022076764, Example 60] | 1400 nM | 56 nM |
| COc1cc(F)c(-n2cc(-c3ccccc3F)nc2NC(=O)c2ccc(OC(F)F)cc2)c(F)c1 [WO2022076764, Example 33] | 940 nM | 39 nM |
| COc1ccc(-n2cc(-c3nccs3)nc2NC(=O)c2ccc(OC(F)F)cc2)cc1 [WO2022076764, Example 24] | 110 nM | 9 nM |
| COc1cc(F)c(-n2cc(-c3ccc(F)cc3)nc2NC(=O)c2ccc(OC(F)F)cc2)c(F)c1 [WO2022076764, Example 4] | 400 nM | 11 nM |
| COc1cc(F)c(-n2cc(C(=O)N3CCOCC3)nc2NC(=O)c2ccc(OC(F)F)cc2)c(F)c1 [WO2022076764, Example 54] | > 10000 nM | 320 nM |
| COc1cc(F)c(-n2c(NC(=O)c3ccc(OC(F)F)cc3)nc(-c3ccccc3)c2C)c(F)c1 [WO2022076764, Example 8] | 230 nM | 8 nM |
| CCOC(=O)Cc1cn(-c2c(F)cc(OC)cc2F)c(NC(=O)c2ccc(OC(F)F)cc2)n1 [WO2022076764, Example 72] | 470 nM | 22 nM |
| COc1ccc(-n2cc(-c3ccc4sccc4c3)nc2NC(=O)c2ccc(OC(F)F)cc2)cc1 [WO2022076764, Example 22] | 140 nM | 86 nM |
| COc1cc(F)c(-n2cc(-c3ccccc3)nc2NC(=O)c2ccc(OC(F)F)cc2)c(F)c1 [WO2022076764, Example 1] | 200 nM | 4 nM |
| COc1cc(F)c(-n2cc(C(=O)NCc3ccncc3)nc2NC(=O)c2ccc(OC(F)F)cc2)c(F)c1 [WO2022076764, Example 48] | 600 nM | 110 nM |

Results, then the compound that gave them:

| EC50 [1] | EC50 (fMet-Leu-Phe receptor) | Compound |
| --- | --- | --- |
| 140 nM | 24 nM | COc1cc(F)c(-n2cc(-c3ccc(Cl)cc3)nc2NC(=O)c2ccc(OC(F)F)cc2)c(F)c1 [WO2022076764, Example 11] |
| 620 nM | 15 nM | CCOC(=O)c1cn(-c2c(F)cc(OC)cc2F)c(NC(=O)c2ccc(OC(F)F)cc2)n1 [WO2022076764, Example 38] |
| 130 nM | 23 nM | COc1cc(F)c(-n2cc(-c3ccc(C)cc3)nc2NC(=O)c2ccc(OC(F)F)cc2)c(F)c1 [WO2022076764, Example 15] |
| 110 nM | 45 nM | COc1cc(F)c(-n2cc(C3CCN(C(=O)CCO)CC3)nc2NC(=O)c2ccc(OC(F)F)cc2)c(F)c1 [WO2022076764, Example 68] |
| 5400 nM | 4 nM | COc1cc(F)c(-n2cc(C3CC(N)C3)nc2NC(=O)c2ccc(OC(F)F)cc2)c(F)c1 (stereo not drawn) [WO2022076764, Example 81] |
| 400 nM | 51 nM | COc1cc(F)c(-n2cc(-c3ccc(Cl)c(Cl)c3)nc2NC(=O)c2ccc(OC(F)F)cc2)c(F)c1 [WO2022076764, Example 18] |
| 93 nM | 28 nM | COc1ccc(-n2cc(-c3ccc4c(c3)CCO4)nc2NC(=O)c2ccc(OC(F)F)cc2)cc1 [WO2022076764, Example 19] |
| > 10000 nM | 130 nM | COc1cc(F)c(-n2cc(C(=O)N3CCNCC3)nc2NC(=O)c2ccc(OC(F)F)cc2)c(F)c1 [WO2022076764, Example 61] |
| 230 nM | 27 nM | COc1cc(F)c(-n2cc(-c3ccc(C#N)cc3)nc2NC(=O)c2ccc(OC(F)F)cc2)c(F)c1 [WO2022076764, Example 16] |
| 3400 nM | 170 nM | COc1cc(F)c(-n2cc(C(=O)N3CCNC(=O)C3)nc2NC(=O)c2ccc(OC(F)F)cc2)c(F)c1 [WO2022076764, Example 58] |
| 2990 nM | 86 nM | COc1cc(F)c(-n2cc(C(=O)N3CCC(CO)CC3)nc2NC(=O)c2ccc(OC(F)F)cc2)c(F)c1 [WO2022076764, Example 69] |
| 4200 nM | 81 nM | COc1cc(F)c(-n2cc(C3CNC3)nc2NC(=O)c2ccc(OC(F)F)cc2)c(F)c1 [WO2022076764, Example 79] |
| 1400 nM | 99 nM | COc1cc(F)c(-n2cc(CC(C)C)nc2NC(=O)c2ccc(OC(F)F)cc2)c(F)c1 [WO2022076764, Example 35] |
| 38 nM | 3 nM | COc1ccc(-n2cc(-c3ccccc3)nc2NC(=O)c2ccc(OC(F)F)cc2)cc1 [WO2022076764, Example 2] |
| 2200 nM | 82 nM | COc1cc(F)c(-n2cc(C(=O)N3CCC(CO)C3)nc2NC(=O)c2ccc(OC(F)F)cc2)c(F)c1 (stereo not drawn) [WO2022076764, Example 59] |
| 2900 nM | 83 nM | COc1cc(F)c(-n2cc(C(=O)N3CCCC(O)C3)nc2NC(=O)c2ccc(OC(F)F)cc2)c(F)c1 (stereo not drawn) [WO2022076764, Example 51] |
| 370 nM | 48 nM | COc1cc(F)c(-n2cc(C(=O)NCc3cc[nH]n3)nc2NC(=O)c2ccc(OC(F)F)cc2)c(F)c1 [WO2022076764, Example 44] |
| 750 nM | 90 nM | COc1cc(F)c(-n2cc(C(=O)NCC3CCC(O)CC3)nc2NC(=O)c2ccc(OC(F)F)cc2)c(F)c1 (stereo not drawn) [WO2022076764, Example 49] |
| 44 nM | 28 nM | COc1ccc(-n2cc(-c3nc4ccccc4s3)nc2NC(=O)c2ccc(OC(F)F)cc2)cc1 [WO2022076764, Example 23] |
| 110 nM | 89 nM | COc1cc(F)c(-n2cc(C(=O)NCc3cnc(C)cn3)nc2NC(=O)c2ccc(OC(F)F)cc2)c(F)c1 [WO2022076764, Example 56] |
| 710 nM | 14 nM | COc1ccc(-n2cc(C(=O)N3CCNCC3)nc2NC(=O)c2ccc(OC(F)F)cc2)cc1 [WO2022076764, Example 45] |
| 46 nM | 5 nM | COc1cc(F)c(-n2cc(-c3cccc(C#N)c3)nc2NC(=O)c2ccc(OC(F)F)cc2)c(F)c1 [WO2022076764, Example 17] |
